Experiment: mn = molality of the nth substance listed, in mol/kg
Conditions: 350 kPa, Liquid

O=[N+]([O-])[O-].O=[N+]([O-])[O-].[Mg+2] [magnesium nitrate] + O
mass density [kg/m3]
Conditions | m1 = 0.0228 | m1 = 0.0567 | m1 = 0.1086 | m1 = 0.2145 | m1 = 0.3197 | m1 = 0.4749 | m1 = 0.6211 | m1 = 0.811 | m1 = 1 | m1 = 1.014
278.15 K | 1002.6 | 1006.37 | 1012.2 | 1023.83 | 1035.31 | 1051.77 | 1066.82 | 1086.01 | 1104.79 | 1106.04
283.15 K | 1002.29 | 1005.98 | 1011.77 | 1023.21 | 1034.48 | 1050.8 | 1065.63 | 1084.59 | 1103.2 | 1104.4
288.15 K | 1001.64 | 1005.28 | 1011.01 | 1022.29 | 1033.42 | 1049.55 | 1064.22 | 1082.99 | 1101.41 | 1102.61
298.15 K | 999.48 | 1003.07 | 1008.68 | 1019.73 | 1030.65 | 1046.49 | 1060.93 | 1079.39 | 1097.46 | 1098.71
308.15 K | 996.42 | 999.96 | 1005.49 | 1016.39 | 1027.14 | 1042.74 | 1056.98 | 1075.19 | 1093.03 | 1094.27
318.15 K | 992.59 | 996.09 | 1001.54 | 1012.32 | 1022.97 | 1038.38 | 1052.47 | 1070.47 | 1088.14 | 1089.36
328.15 K | 988.06 | 991.53 | 996.93 | 1007.61 | 1018.17 | 1033.44 | 1047.38 | 1065.25 | 1082.78 | 1083.97
338.15 K | 982.92 | 986.36 | 991.75 | 1002.35 | 1012.86 | 1027.99 | 1041.88 | 1059.64 | 1077.04 | 1078.2
348.15 K | 977.2 | 980.38 | 985.71 | 996.29 | 1007.11 | 1022.17 | 1035.94 | 1053.67 | 1071 | 1071.85
358.15 K | 970.99 | 974.49 | 979.87 | 990.4 | 1000.85 | 1015.92 | 1029.76 | 1047.38 | 1064.73 | 1065.89
368.15 K | 964.33 | 967.8 | 973.17 | 983.77 | 994.23 | 1009.33 | 1023.17 | 1040.85 | 1058.19 | 1059.34

Reference: the NIST ThermoML archive (doi:10.1016/j.jct.2006.09.008)
